# Experimental data: patent US10828289B2, “Hair follicle stem cell activation and hair growth” (THE REGENTS OF THE UNIVERSITY OF CALIFORNIA, priority 2016, dated 2020)
# Entries after “also recorded” stand apart in the source; their conditions may differ.
# Columns and labels:
# Format in all cases: in vivo, mouse
# c-Myc = experiment: Immunoblotting of total protein preps from topically treated skin: c-Myc; settings: 2 topical doses of 50 uM (48 hours), vs vehicle control
# Description: (§1) Mice. Animals were acquired from Jackson Labs (K15-CrePR, Lgr5-CreER and Lgr6-CreER), Rutter Lab (Mpc^fl/fl) and Seth Lab (Ldha^fl/fl) and maintained under conditions set forth by IUCUC and ARC. For experiments that include analysis of the telogen stage of the hair cycle, animals were harvested at post-natal day 50, for telogen-anagen transition animals were harvested at day 70, and for anagen animals were harvested at post-natal day 90. For experiments that include analysis of transgenic animals, K15-CrePR animals were shaved and treated by intraperitoneal injections of mifepristone and Lgr5-CreER and Lgr6-CreER animals were shaved and treated with tamoxifen (10 mg/ml dissolved in sunflower seed oil, 2 mg per day for 3 days) during telogen (post-natal day 50), and monitored for hair regrowth following shaving. For FIGS. 6A-6G, wildtype C57BL/6J animals were shaved at post-natal day 50 and treated topically with Transderma Plo Gel Ultramax Base (TR220) (vehicle) or RCGD423 (50 uM) for indicated periods of time. Both male and female animals were used in this study in approximately equal numbers with no apparent difference in phenotype between genders. […]
# (§2) Histology, Immunostaining and Immunoblotting. […] Images were collected on an Olympus BX43 Upright Microscope and Zeiss Model Axio Imager M1 Upright Fluorescence Microscope. […]
# n-Myc = experiment: Immunoblotting of total protein preps from topically treated skin: n-Myc; settings: 2 topical doses of 50 uM (48 hours), vs vehicle control
# Description: as §1, §2
# Ldha = experiment: Immunoblotting of total protein preps from topically treated skin: Ldha; settings: 2 topical doses of 50 uM (48 hours), vs vehicle control
# Description: as §1, §2
# Ldh [1] = experiment: Plate-reader Ldh activity assay on lysates from total epidermis after topical treatment; settings: vs vehicle
# Description: as §1, with “shaving.” for “shaving. For FIGS. 6A-6G, wildtype C57BL/6J animals were shaved at post-natal day 50 and treated topically with Transderma Plo Gel Ultramax Base (TR220) (vehicle) or RCGD423 (50 uM) for indicated periods of time. Both male and female animals were used in this study in approximately equal numbers with no apparent difference in phenotype between genders.”
# Plate-reader Ldh assay. Ldh activity was determined in cell lysates by measuring the formation of soluble XTT formazan in direct relation to production of NADH over time at 475 nm at 37° C. using a Synergy-MX plate reader (Biotek Instruments). […] Protein content was determined using the BCA Protein Assay Kit (Thermo Scientific Pierce). […] Ldh activity was determined in cell lysates by measuring the change in absorbance of their common substrate or product, NADH, over time at 340 nm at 25° C. using a Synergy-MX plate reader (Biotek Instruments).
# Ldh [2] = experiment: In situ Ldh activity staining of skin sections after topical treatment; settings: epidermis and dermis
# Description: as §1, with “genders. All phenotypes described are representative of a minimum of n=3 littermate pairs as indicated in the description of each experiment.” for “genders.”
# lactate = experiment: LC-MS-based metabolomics of lactate after topical treatment; settings: 48 hours, vs vehicle
# Description: as §1, with “time.” for “time. Both male and female animals were used in this study in approximately equal numbers with no apparent difference in phenotype between genders.”
# Mass spectrometry-based metabolomics analysis. […] The samples were analyzed with an UltiMate 3000RSLC (Thermo Scientific) coupled to a Q Exactive mass spectrometer (Thermo Scientific). […] Metabolites were quantified with TraceFinder 3.3 using accurate mass measurements (<3 ppm) and retention times.
# Stat-3 = experiment: Immunostaining with phospho-Stat3 antibody in HFSCs after topical treatment
# Description: as §1, §2
# HFSCs = experiment: Immunohistochemistry for Ki-67 in HFSCs after topical treatment; settings: same tissue
# Description: as §1, §2
# pStat1 = experiment: IHC for pStat1 in topically treated skin; settings: topical, shaved mice day 50, skin harvested 48 hours after treatment
# Experimental: (§3) FIG. 5. Stimulation of Jak-Stat signaling and the hair cycle. RCGD423 was applied topically to shaved mice at day 50. 48 hours after treatment, the skin was harvested and prepared for IHC. […] Scale bars indicate 20 micrometers.
# as §1, with “shaving.” for “shaving. For FIGS. 6A-6G, wildtype C57BL/6J animals were shaved at post-natal day 50 and treated topically with Transderma Plo Gel Ultramax Base (TR220) (vehicle) or RCGD423 (50 uM) for indicated periods of time. Both male and female animals were used in this study in approximately equal numbers with no apparent difference in phenotype between genders.”
# as §2
# pStat5 = experiment: IHC for pStat5 in topically treated skin; settings: topical, shaved mice day 50, skin harvested 48 hours after treatment
# Experimental: as §3
# as §1, with “shaving.” for “shaving. For FIGS. 6A-6G, wildtype C57BL/6J animals were shaved at post-natal day 50 and treated topically with Transderma Plo Gel Ultramax Base (TR220) (vehicle) or RCGD423 (50 uM) for indicated periods of time. Both male and female animals were used in this study in approximately equal numbers with no apparent difference in phenotype between genders.”
# as §2
# hair cycle = experiment: Topical treatment of shaved animals in telogen (day 50), hair cycle observation
# Description: Mice. Animals were acquired from Jackson Labs (K15-CrePR, Lgr5-CreER and Lgr6-CreER), Rutter Lab (Mpc^fl/fl) and Seth Lab (Ldha^fl/fl) and maintained under conditions set forth by IUCUC and ARC. For experiments that include analysis of the telogen stage of the hair cycle, animals were harvested at post-natal day 50, for telogen-anagen transition animals were harvested at day 70, and for anagen animals were harvested at post-natal day 90. For experiments that include analysis of transgenic animals, K15-CrePR animals were shaved and treated by intraperitoneal injections of mifepristone and Lgr5-CreER and Lgr6-CreER animals were shaved and treated with tamoxifen (10 mg/ml dissolved in sunflower seed oil, 2 mg per day for 3 days) during telogen (post-natal day 50), and monitored for hair regrowth following shaving. For FIGS. 6A-6G, wildtype C57BL/6J animals were shaved at post-natal day 50 and treated topically with Transderma Plo Gel Ultramax Base (TR220) (vehicle) or RCGD423 (50 uM) for indicated periods of time. Both male and female animals were used in this study in approximately equal numbers with no apparent difference in phenotype between genders. All phenotypes described are representative of a minimum of n=3 littermate pairs as indicated in the description of each experiment. No statistical measure was used to determine the sample size beforehand, nor were statistics used to measure effects, as the results were essentially positive or negative as represented in the figures. The results described include data from all treated animals. The investigators were not blinded to allocation during the experimental data collection, nor were the experiments randomized. The results shown were representative images from at least three independently treated animals, and genotyping was performed both before and after animal treatment for confirmation.
# [3] = topical treatment of animals in telogen (day 50)
smiles,measurement,setting,value
Brc1ccc(Nc2nc(-c3ccccc3)cs2)cc1 [RCGD423],c-Myc protein levels,c-Myc,increased; also recorded: induced
same,n-Myc protein levels,n-Myc,increased; also recorded: induced
same,Ldha protein levels,Ldha,increased; also recorded: induced
same,"Ldh activity, in vitro measurement on lysates from total epidermis",Ldh [1],increase in activity
same,"Ldh activity, in situ staining",Ldh [2],strong induction
same,lactate level,lactate,large increase
same,Stat-3 activation (phospho-Stat3 immunostaining),Stat-3,activated
same,Ki-67 in HFSCs,HFSCs,induction
same,effect on pStat1,pStat1,does not dramatically affect
same,effect on pStat5,pStat5,does not dramatically affect
same,hair cycle,hair cycle; [3],robust acceleration of the hair cycle
same,interfollicular epidermis proliferation,hair cycle; [3],minor hyperproliferation of the interfollicular epidermis
same,observed phenotype (entry into anagen),"hair cycle; topical, 50 uM, after 5 doses","pigmentation and hair growth, indicative of entry into anagen"
